Assay results taken from patent publication US20210403435A1, “HERBICIDAL COMPOUNDS” (SYNGENTA CROP PROTECTION AG, priority 2018, published 2021).
Read-outs that look alike come from different tables or passages of the source.

Legend:
Assay in all cases: Post-emergence efficacy, glasshouse, evaluated after 13 days
Format in all cases: in vivo
[1] = system: Chenopodium album (CHEAL); conditions: for pest or weed control at 500 g/ha: Chenopodium album, 312 h, read-out: Control of weed species CHEAL (100=total damage to plant; 0=no damage to plant)
How it was run: (§1)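 Glasshouse post-emergence test: 14-day plants sprayed, then maintained at 24/16 °C day/night, 14 h photoperiod, 65% humidity. Evaluation at day 13 uses a percentage damage scale (100 = plant fully damaged).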

[2] = system: Echinochloa crus-galli (ECHCG); conditions: for pest or weed control at 500 g/ha: Echinochloa crus-galli, 312 h, read-out: Control of weed species ECHCG (100=total damage to plant; 0=no damage to plant)
How it was run: as §1

[3] = system: Euphorbia heterophylla (EPHHL); conditions: for pest or weed control at 500 g/ha: Euphorbia heterophylla, 312 h, read-out: Control of weed species EPHHL (100=total damage to plant; 0=no damage to plant)
How it was run: as §1

Setaria faberi (SETFA) = conditions: for pest or weed control at 500 g/ha: Setaria faberi, 312 h, read-out: Control of weed species SETFA (100=total damage to plant; 0=no damage to plant)
How it was run: as §1

[4] = system: Digitaria sanguinalis (DIGSA); conditions: for pest or weed control at 500 g/ha: Digitaria sanguinalis, 312 h, read-out: Control of weed species DIGSA (100=total damage to plant; 0=no damage to plant)
How it was run: as §1

Lolium perenne (LOLPE) = conditions: for pest or weed control at 500 g/ha: Lolium perenne, 312 h, read-out: Control of weed species LOLPE (100=total damage to plant; 0=no damage to plant)
How it was run: as §1

[5] = system: Ipomoea hederacea (IPOHE); conditions: for pest or weed control at 500 g/ha: Ipomoea hederacea, 312 h, read-out: Control of weed species IPOHE (100=total damage to plant; 0=no damage to plant)
How it was run: as §1

[6] = system: Amaranthus palmeri (AMAPA); conditions: for pest or weed control at 500 g/ha: Amaranthus palmeri, 312 h, read-out: Control of weed species AMAPA (100=total damage to plant; 0=no damage to plant)
How it was run: as §1

Eleusine indica (ELEIN) = conditions: for pest or weed control at 500 g/ha: Eleusine indica, 312 h, read-out: Control of weed species ELEIN (100=total damage to plant; 0=no damage to plant)
How it was run: as §1

[7] = post-emergence application, 500 g/Ha, evaluated after 13 days

SMILES | pest or weed control at 500 g/ha [1, 7] [%] | pest or weed control at 500 g/ha [2, 7] [%] | pest or weed control at 500 g/ha [3, 7] [%] | pest or weed control at 500 g/ha (Setaria faberi (SETFA); [7]) [%] | pest or weed control at 500 g/ha [4, 7] [%] | pest or weed control at 500 g/ha (Lolium perenne (LOLPE); [7]) [%] | pest or weed control at 500 g/ha [5, 7] [%] | pest or weed control at 500 g/ha [6, 7] [%] | pest or weed control at 500 g/ha (Eleusine indica (ELEIN); [7]) [%] | further results
CCNC(=O)c1cc[n+](C(C)(C)CC(=O)O)nc1 [Compound A71] | 70 | 30 | 20 | 30 | 60 | 30 | 60 | 100 | 30 | 
CN(NC(=O)c1cc[n+](CCC(=O)O)nc1)C(=O)OC(C)(C)C.O=C([O-])C(F)(F)F [Compound A72] |  |  |  |  |  |  |  |  |  | Control of weed species CHEAL (100=total damage to plant; 0=no damage to plant) [1, 7]: 20; Control of weed species ECHCG (100=total damage to plant; 0=no damage to plant) [2, 7]: 20; Control of weed species EPHHL (100=total damage to plant; 0=no damage to plant) [3, 7]: 20; Control of weed species SETFA (100=total damage to plant; 0=no damage to plant) (Setaria faberi (SETFA); [7]): 20; Control of weed species DIGSA (100=total damage to plant; 0=no damage to plant) [4, 7]: 40; Control of weed species LOLPE (100=total damage to plant; 0=no damage to plant) (Lolium perenne (LOLPE); [7]): 20; Control of weed species IPOHE (100=total damage to plant; 0=no damage to plant) [5, 7]: 20; Control of weed species AMAPA (100=total damage to plant; 0=no damage to plant) [6, 7]: 100; Control of weed species ELEIN (100=total damage to plant; 0=no damage to plant) (Eleusine indica (ELEIN); [7]): 30
CCNC(=O)c1cc[n+](CCNS(=O)(=O)C(F)(F)F)nc1 [Compound A73] | 90 | 80 | 90 | 60 | 90 | 60 | 80 | 100 | 90 | 
CCNC(=O)c1cc[n+](CCCC(=O)O)nc1 [Compound A74] | 90 | 60 | 60 | 70 | 80 | 80 | 40 | 100 | 80 | 
CCNC(=O)c1cc[n+](CCCS(=O)(=O)[O-])nc1 [Compound A76] | 70 | 30 | 100 | 30 | 70 | 70 | 30 | 40 | 60 | 
CCNC(=O)c1cc[n+](CCOS(=O)(=O)[O-])nc1 [Compound A80] | 100 | 90 | 90 | 80 | 90 | 70 | 70 | 100 | 90 | 
CCNC(=O)c1cc[n+](CCNS(=O)(=O)[O-])nc1 [Compound A81] | 100 | 100 | 100 | 100 | 90 | 90 | 90 | 100 | 100 | 
CCNC(=O)c1cc[n+](CCCOS(=O)(=O)[O-])nc1 [Compound A83] |  |  |  |  |  |  |  |  |  | Control of weed species CHEAL (100=total damage to plant; 0=no damage to plant) [1, 7]: 90; Control of weed species ECHCG (100=total damage to plant; 0=no damage to plant) [2, 7]: 90; Control of weed species EPHHL (100=total damage to plant; 0=no damage to plant) [3, 7]: 90; Control of weed species SETFA (100=total damage to plant; 0=no damage to plant) (Setaria faberi (SETFA); [7]): 60; Control of weed species DIGSA (100=total damage to plant; 0=no damage to plant) [4, 7]: 90; Control of weed species LOLPE (100=total damage to plant; 0=no damage to plant) (Lolium perenne (LOLPE); [7]): 80; Control of weed species IPOHE (100=total damage to plant; 0=no damage to plant) [5, 7]: 80; Control of weed species AMAPA (100=total damage to plant; 0=no damage to plant) [6, 7]: 90; Control of weed species ELEIN (100=total damage to plant; 0=no damage to plant) (Eleusine indica (ELEIN); [7]): 90
O=C(Nc1ccccc1O)c1cc[n+](CCS(=O)(=O)[O-])nc1 [Compound A84, 2-[4-[(2-hydroxyphenyl)carbamoyl]pyridazin-1-ium-1-yl]ethanesulfonate] | 30 | 20 | 30 | 20 | 50 | 0 | 10 | 0 | 10 | 
CC(C#N)NC(=O)c1cc[n+](CCC(=O)O)nc1 (stereo not drawn) [Compound A85] | 90 | 90 | 100 | 90 | 100 | 60 | 30 | 100 | 100 | 
CC#CCNC(=O)c1cc[n+](CCC(=O)O)nc1 [Compound A86] | 90 | 100 | 100 | 100 | 100 | 60 | 20 | 100 | 90 | 
CCNC(=O)c1cc[n+](CCP(=O)(OCC)OCC)nc1 [Compound A87] |  |  |  |  |  |  |  |  |  | pest or weed control at 500 g/ha ([1]; post-emergence): 100%; pest or weed control at 500 g/ha ([2]; post-emergence): 0%; pest or weed control at 500 g/ha ([3]; post-emergence): 40%; pest or weed control at 500 g/ha (Setaria faberi (SETFA); post-emergence): 60%; pest or weed control at 500 g/ha ([4]; post-emergence): 10%; pest or weed control at 500 g/ha (Lolium perenne (LOLPE); post-emergence): 10%; pest or weed control at 500 g/ha ([5]; post-emergence): 30%; pest or weed control at 500 g/ha ([6]; post-emergence): 100%; pest or weed control at 500 g/ha (Eleusine indica (ELEIN); post-emergence): 20%
CCNC(=O)c1cc[n+](CC(C)(C)C(=O)O)nc1 [Compound A88] | 100 | 90 | 90 | 100 | 80 | 60 | 90 | 100 | 100 | 
CCNC(=O)c1cc[n+](CC(=O)OC)nc1 [Compound A89] | 0 | 0 | 20 | 0 | 0 | 0 | 20 | 0 | 0 | 
N#CCNC(=O)c1cc[n+](CCC(=O)O)nc1 [Compound A90] | 90 | 100 | 100 | 100 | 100 | 70 | 80 | 100 | 100 | 
CCNC(=O)c1cc[n+](CC[C@H](N)C(=O)O)nc1 [Compound A91, [(1S)-1-carboxy-3-[4-(ethylcarbamoyl)pyridazin-1-ium-1-yl]propyl]ammonium dichloride] | 50 | 0 | 20 | 70 | 60 | 60 | 30 | 70 | 70 | 
